Where a name gives a salt, the structure may show the parent alone.
Assays:
[1] = test system: H460 human non-small cell lung cancer xenograft; experiment: In vivo antitumor efficacy, H460 xenograft; design: species or system BALB/c immunodeficient nude mice; details: for Tumor inhibition rate %: by tumor weight
Source text: To evaluate the in vivo anticancer efficacy of COMPOUND O, H460 human non-small cell lung Cancer xenograft models in immunodeficient nude mice was used. The cell line and mice were maintained in the Pharmacology Lab of ACEA Bio (Hangzhou) CO., Ltd. The BALB/c immunodeficient nude mice were purchased from Shanghai SLAC Laboratory Animal, certification number: SCXKA (Shanghai) 2007-0005. The mouse weight was between 19±2 g. Only female mice were used in this study. The numbers of animals tested were as follows: 7 for each dose group, 7 for positive control group and 7 for negative control group.
Test Control. For negative control, each mouse was administered orally with the solvent only having the same volume and same concentration as those used in COMPOUND O test, 120 mg/kg once every other day (qod) for 25 days. For positive control, an oral anticancer compound, Etoposide was administered orally at 30 mg/kg qod for 25 days.
Preparation an Administration of Test Compounds. COMPOUND O was dissolved in 25% phospholipid (S75) and 75% polyvinylpyrrolidone (PL-PVP) then further diluted to 8 mg/ml in 0.9% NaCl aqueous solution. Each mouse was administered orally with the compound solution. Different dosages of COMPOUND O (120 mg/kg qod and 160 mg/kg q3d) were used in the study.
Preparation of tumor cells for transplantation and determination of compound efficacy. To prepare the cancer cells for H460 human non-small cell lung cancer xenograft model, the log phase growing cell in the flask were trypsinized and cells were re-suspended in PBS (pH 7.2) at 1.5×10^7 cells/ml. The cell suspension (3×10^6 cells) was subcutaneously injected into the auxiliary region (right-side) of each mouse. After the inoculated cancer cells grew to a tumor of certain size (150 mm^3) in the nude mice, the mice were randomized into different dosing groups and subjected to compound treatment. Between 3-4 weeks after the first dosing, mice were sacrificed and the transplanted tumors were removed from experimental mice. Each removed solid tumor was weighed; the tumor inhibition rate in each dosage group was calculated according to equation (1) in Example 1.
All used materials including animal food, animal cage, supporting materials and apparatus contacted by animals, were high-pressure sterilized. Nude mice were maintained in laminar flow shelves under SPF condition. After tumor transplantation, mouse weight and tumor size in each compound dosage group were dynamically monitored and plotted. The tumor size was determined by measuring the major axis (a) and minor axis (b) of the tumor, and tumor volume was calculated according to the formula (2) in Example 1.

[2] = test system: H2347 cells (human non-small cell lung cancer cell line); experiment: Inhibition of cell proliferation, xCelligence cell index; assay type: cell-based; details: NCI-H2347, 72 hr post compound treatment, read-out: calculated IC50
Source text: (§1) The biological activity of compounds disclosed herein was monitored and profiled using the Real-Time Cell Electronic Sensing (RT-CES®) system from ACEA Biosciences, Inc. The RT-CES system utilizes cell-substrate impedance technology to monitor cellular behavior inside tissue culture wells in a microtiter plate format. The technology features in the integration of molecular and cell biology with microelectronics and is based on the electronic detection of biological assay process. […]
(§2) For measurement of cell-substrate or cell-electrode impedance using RT-CES technology, microelectrodes having appropriate geometries are fabricated onto the bottom surfaces of microtiter plate or similar device, facing into the wells. […] When there are changes to the biological status of the cells analogue electronic readout signals are measured automatically and in real time, and are converted to digital signals for processing and for analysis. In a RT-CES system, a cell index (arbitrary representation of change in impedance) is automatically derived and provided based on measured electrode impedance values. […]
(§3) To quantify cell status based on the measured cell-electrode impedance, a parameter termed Cell Index is derived. Cell Index is a quantitative measure of the status of the cells in an electrode-containing well. […]

[3] = test system: H1838 cells (human non-small cell lung cancer cell line); experiment: as above; assay type: cell-based; details: NCI-H1838, 72 hr post compound treatment, read-out: calculated IC50
Source text: as §1, §2, §3

With `CCc1ccc(Nc2nc(-c3c(C)nc4sccn34)cs2)cc1` [COMPOUND O, 2-(4-ethylphenyl)amino-4-(6-methylimidazo[2,1-b]thiazol-5-yl)-thiazole monohydrobromide] the “TV inhibition rate % T/C” value ([1]; 120 mg/kg ig × 11 qod) was 47.0%, the “Tumor volume (mm^3) End” value ([1]; 120 mg/kg ig × 11 qod) was 745.28 ± 245.55 mm^3 and the “Tumor volume (mm^3) Start” value ([1]; 120 mg/kg ig × 11 qod) was 162.09 ± 53.94 mm^3. The “Tumor weight (g) x ± SD” value ([1]; 120 mg/kg ig × 11 qod) was 0.81 ± 0.29 g, the “Tumor inhibition rate %” value ([1]; 120 mg/kg ig × 11 qod) was 47.1% and the “TV inhibition rate % T/C” value ([1]; 160 mg/kg ig × 9 q3d) was 69.9%. The “Tumor volume (mm^3) End” value ([1]; 160 mg/kg ig × 9 q3d) was 524.67 ± 141.77 mm^3, the “Tumor volume (mm^3) Start” value ([1]; 160 mg/kg ig × 9 q3d) was 171.44 ± 53.63 mm^3 and the “Tumor weight (g) x ± SD” value ([1]; 160 mg/kg ig × 9 q3d) was 0.46 ± 0.13 g. The “Tumor inhibition rate %” value ([1]; 160 mg/kg ig × 9 q3d) was 31.3%, the IC50 [2] was 1.76 nM and the IC50 [3] was 11.8 nM.
In the case of `COc1cc([C@@H]2c3cc4c(cc3[C@@H](O[C@@H]3O[C@@H]5CO[C@@H](C)O[C@H]5[C@H](O)[C@H]3O)[C@H]3COC(=O)[C@H]23)OCO4)cc(OC)c1O` [Etoposide, reference compound], the “TV inhibition rate % T/C” value ([1]; 30 mg/kg ig × 13 qod) is reported as 50.4%, the “Tumor volume (mm^3) End” value ([1]; 30 mg/kg ig × 13 qod) is reported as 775.43 ± 302.62 mm^3 and the “Tumor volume (mm^3) Start” value ([1]; 30 mg/kg ig × 13 qod) is reported as 163.79 ± 57.22 mm^3. The “Tumor weight (g) x ± SD” value ([1]; 30 mg/kg ig × 13 qod) was 0.76 ± 0.29 g and the “Tumor inhibition rate %” value ([1]; 30 mg/kg ig × 13 qod) was 48.4%.
`CC[C@]1(O)C[C@H]2CN(CCc3c([nH]c4ccccc34)[C@@](C(=O)OC)(c3cc4c(cc3OC)N(C=O)[C@H]3[C@@](O)(C(=O)OC)[C@H](OC(C)=O)[C@]5(CC)C=CCN6CC[C@]43[C@@H]65)C2)C1` [vincristine] gave an IC50 [2] of 5.05 nM and an IC50 [3] of 3.16 nM.

— patent US20110207751A1, “HETEROCYCLIC COMPOUNDS AND USES AS ANTICANCER AGENTS” (priority 2010, published 2011)
